Patent US6582968B2, “Paramagnetic and active analogue (EMP-2) of melanocyte stimulating hormone containing amino acid-type stable free radical” (Conselho Nacional de Desenvolvimento Cientifico e …, priority 1999, dated 2003)

System: frog (Rana catesbeiana) skin
Experiment: frog skin bioassay (skin darkening measured by reflectance)
Type: cell-based
Details: for time to reversal of the maximum response after removal of the agonist: 10^−8 M peptide, removal followed by several Ringer's solution washings, FIG. 5; for agonist character and potency compared to native α-MSH (dose-response curves): frog skin pigmentation, decrease in skin reflectance, FIG. 4
Procedure: The biological activity assay of the EPM-2 was carried out comparatively to the native α-MSH. The classical method of measuring by reflectance the alteration in the frog skin pigmentation was assayed, see, Gen. Comp. Endocrinol. 55, 104 (1984). The potency of the synthesized hormone was determined through a dose-effect curve and long lasting activities were measured until a maximum of 3 h after the peptide removal from the incubation system carried out with successive washes. Briefly, the skin of the thigh and the dorsal portion of a frog were removed and cut in pieces of 2×2 cm which were placed among two rings of PVC and maintained for 1 h in Ringer's solution. After this period, the melanin granules aggregate in the melanocytes, and the skin becomes clearer. When α-MSH or its spin labeled analogue is added to the medium, there is a dispersion of the pigments in the cell, resulting in skin darkening. The change in the coloration is therefore monitored (decrease in the skin reflectance) in a photovolt reflectometer. The result is expressed as percentage in relation to the initial value.

Substance	time to reversal of the maximum response after removal of the agonist [min]	agonist character and potency compared to native α-MSH (dose-response curves)	agonist character and potency compared to native α-MSH (dose-response curves) (listed as labeled analogue)	natural biological activity maintained (relative to native α-MSH) [%]
Acetyl-Ser-Tyr-Ser-Met-Glu-His-Phe-Arg-Trp-Gly-Lys-Pro-Val-CONH2 (Ac-SYSMEHFRWGKPV-NH2) [α-MSH, native melanocyte stimulating hormone, comparator, reference compound]	90	–	–	–
Acetyl-Toac-Ser-Tyr-Ser-Met-Glu-His-Phe-Arg-Trp-Gly-Lys-Pro-Val-CONH2 [EPM-2]	90	fully maintaining the biological potency of the native α-MSH	full α-MSH agonist with equivalent potency	100
